Measured values: patent US7772274B1, “Docetaxel formulations with lipoic acid” (Scidose, LLC, priority 2009, dated 2010)
Where two headings read alike, the source gives them in different places.

Assay: Solubility of docetaxel in various solvents
Format: physicochemical
Conditions: for solubility: read-out: Solubility of Docetaxel, Concentration
Experimental: In consideration of the severe side effects associated with the use of polysorbates, such as TWEEN 80®, as solubilizers of docetaxel, solubility studies were conducted to determine non-toxic solvents that can effectively dissolve docetaxel.
Solubility of docetaxel was assessed using several different solvents that are well-tolerated in subjects, as well as polysorbates for comparison.

- solubility (oil or lipid, solvent LABROFAC™ (Capric triglyceride PEG 4 ester Macrogol 200)): 35 mg/mL
- solubility (oil or lipid, solvent MAISINE™ 35-1 (Glycerol mono linoleate)): 10 mg/mL
- solubility (oil or lipid, solvent PECEOL® (Glycerol mono Oleate 40)): 7 mg/mL
- solubility (organic solvent or mixture, solvent 1-lactic acid): 6 mg/mL
- solubility (organic solvent or mixture, solvent 2% Lutrol in PEG 400): 15 mg/mL
- solubility (organic solvent or mixture, solvent 50% PEG 400/50% PG): 15 mg/mL
- solubility (organic solvent or mixture, solvent Acetic acid): 60 mg/mL
- solubility (organic solvent or mixture, solvent Benzyl alcohol): 90 mg/mL
- solubility (organic solvent or mixture, solvent Benzyl benzoate): 13 mg/mL
- solubility (organic solvent or mixture, solvent Ethanol): 120 mg/mL
- solubility (organic solvent or mixture, solvent Glycerol): 1.65 mg/mL
- solubility (organic solvent or mixture, solvent Glycofurol): 200 mg/mL
- solubility (organic solvent or mixture, solvent N-Methyl 2-Pyrrolidone): 17.6 mg/mL
- solubility (organic solvent or mixture, solvent PEG 400): 10 mg/mL
- solubility (organic solvent or mixture, solvent Propylene Glycol): 10 mg/mL
- solubility (organic solvent or mixture, solvent Span 80): 3.5 mg/mL
- solubility (organic solvent or mixture, solvent TPGS 1000): 50 mg/mL
- solubility (organic solvent or mixture, solvent TWEEN 20®): 90 mg/mL
- solubility (organic solvent or mixture, solvent TWEEN 80®): 60 mg/mL
- Solubility of Docetaxel, Concentration (solvent Glycofurol): most soluble
Compound: CC(=O)O[C@@]12CO[C@@H]1C[C@H](O)[C@@]1(C)C(=O)[C@H](O)C3=C(C)[C@@H](OC(=O)[C@H](O)[C@@H](NC(=O)OC(C)(C)C)c4ccccc4)C[C@@](O)([C@@H](OC(=O)c4ccccc4)[C@H]21)C3(C)C [Docetaxel, (2R,3S)—N-carboxy-3-phenylisoserine, N-tert-butyl ester, 13-ester with 5β-20-epoxy-1,2α,4,7β,10β,13α-hexahydroxytax-11-en-9-one 4-acetate 2-benzoate, trihydrate]
